Measured values taken from patent US11471502B2, “Neuroprotective peptide” (UNIVERSITY COLLEGE CARDIFF C[…], priority 2017, dated 2022).

Experiments:
[1] = tested on: ERK signalling in the striatum; test: Single in vivo injection, IHC/immunofluorescence of nuclear and cytoplasmic ERK markers in striatum; design: species or system mouse; conditions: 1 h
Protocol: (§1) a) RB5 peptide selectively promoted activation of ERK2. Acute striatal slices either pre-treated with Scramble (SCR) or RB5 peptide (50 μM) and then stimulated 10 minutes with glutamate (GLU) (100 μM) or vehicle were analysed in Western blot (left panel) and probed with anti phospho ERK antibodies (p44^ERK1 and p42^ERK2) and anti ERK1/2 antibody. GAPDH was used as loading control. […] No changes were detected in the total ERK1 and ERK2 levels. GAPDH was used as loading control. […] Mice injected with a single dose of CPP-SCR or CPP-RB5 peptides (20 mg/kg, i.p.) were rapidly perfused 1 h later and brains were dissected and further analysed for IHC and immunofluorescence. Representative photomicrographs of pERK1/2, pMSK, pAch3, pELK1 and c-Fos expression in the striatum. […] Two-way ANOVA Bonferroni post hoc comparison: one black star, p<0.05, two black stars, p<0.01, one white star, p<0.001. p) Dose response curve of RB5 peptide for ERK activation. 200 μm thick striatal slices were freshly prepared from 2-month old mice and transferred into a perfusion chamber for 1 h at 32° C. Slices were pre-treated with different doses of RB5 or scrambled control. After 1 h, slices for each dose was fixed in PFA 4% for 15 min. 18 μm cryo-sections were processed for immunohistochemistry with anti-phospho p44/p42 MAP kinase. Neuronal quantification was performed with ImageJ software by counting the number of phospho-ERK positive cells in each slice. The level of activation is expressed on the Y-axis as arbitrary units (AU). Doses are reported in a logarithmic scale (Log 10) on the X-axis. The EC50 was calculated using GraphPad Prism software.
At the indicated times after drug treatments, animals were anaesthetised and transcardially perfused with ice-cold buffered 4% PFA. Brains were extracted, post-fixed overnight and transferred to 30% buffered sucrose for 24 h. Coronal sections were cut to a 35 μm thickness on a freezing microtome and stored in a cryoprotective solution at −20° C. until processing for immunohistochemistry or immunofluorescence.
1 h after CPP-RB5/CPP-SCR (20 mg/kg, i.p.) mice were anaesthetized and perfused via intracardiac infusion of ice-cold 4% PFA. Brains were rapidly extracted, post-fixed overnight and transferred to 25% buffered sucrose for 24 h. Coronal sections were cut at 30 μm thickness on a freezing microtome and stored in a cryoprotective solution at −20° C. until they were processed for immunohistochemistry. Free-floating sections were incubated with primary antibodies against anti-phospho-p44/42 MAP kinase (Thr202/Tyr204), anti-phospho-Elk-1 (Ser383), anti-phospho-Kv4.2 (Thr607)-R, anti-phospho-MSK-1, anti-phospho-MEK-1, c-Fos and Tyrosine Hydroxylase overnight at 4° C. Sections were then incubated with biotinylated goat anti-rabbit IgG (1:200, Vector Labs) for 2 h. Detection of the bound antibodies was carried out using a standard peroxidase-based method (ABC-kit, Vectastain, Vector Labs), followed by a DAB and H2O2 solution. Quantification of positive neurons were counted from striatum in 2-3 sections per mouse, bilaterally. Sample areas were visualized under a 20× objective in a Leica DM IRB microscope by a blind investigator to condition and counts per region were averaged across the sections using the ImageJ software.

[2] = tested on: ERK-dependent nuclear signalling (histone H3) and cytoplasmic signalling (ribosomal protein S6); test: Ex vivo acute slices, glutamate stimulation, immunofluorescence for phospho-acetyl histone H3 and phospho-S6; format: cell-based, mouse; conditions: 50 μM peptide, glutamate 100 μM
Protocol: as §1
Adult mice were anesthetized and decapitated. […]
Slides were placed in a humid chamber and 1 h after blocking in 5% normal goat serum and 0.1% Triton X-100 solution, they were incubated overnight at 4° C. with one of the following primary antibodies: anti-phospho-S6 ribosomal protein (Ser235/236) (1:200 Cell Signalling Technology, Danvers, Mass.), anti-phospho-S6 ribosomal protein (Ser240/244) (1:200 Cell Signalling Technology, Danvers, Mass.), anti-phospho (Ser10)-acetylated (Lys14) histone H3 (1:1000 (Millipore, Billerica, Mass.) or Cleaved Caspase 3 (1:200 Cell Signalling Technology, Danvers, Mass.) and anti-NeuN (1:1000 Millipore, Billerica, Mass.) followed by appropriate secondary antibodies. […] Neuronal quantification is performed with ImageJ software by counting phospho-S6 immunoreactive or pH3 neurons among NeuN positive neurons in each slide (n=10 for each experimental group). […]

| Compound | nuclear ERK-dependent signalling and gene transcription (pMSK, pAcH3, pELK, c-Fos) ([1]; 20 mg/kg i.p.) | phosphorylation of the cytoplasmic markers (pMEK-1, pVGK+, pS6) ([1]; 20 mg/kg i.p.) | striatal ERK phosphorylation (pERK1/2) ([1]; 20 mg/kg i.p.) | phospho (Ser10)-acetyl(Lys14)-histone-H3, nuclear ERK signalling [2] | phospho-S6 ribosomal protein, cytosolic/cytoplasmic signalling [2] | cytoplasmic signalling measured by ribosomal S6 phosphorylation ([1]; 20 mg/kg) | phosphorylation of voltage-gated potassium channel (pKv4.2) and MEK-1 ([1]; 20 mg/kg, vs CPP-SCR) |
| --- | --- | --- | --- | --- | --- | --- | --- |
| CSCC[C@H](NC(=O)[C@H](CCC(=O)O)NC(=O)[C@@H](NC(=O)[C@H](CCC(=O)O)NC(=O)CNC(=O)[C@@H]1CCCN1C(=O)[C@@H](NC(=O)CNC(=O)[C@@H]1CCCN1C(=O)CNC(=O)[C@@H](NC(=O)CNC(=O)[C@H](CCC(=O)O)NC(=O)[C@@H](NC(=O)[C@H](CCCNC(=N)N)NC(=O)[C@H](CCCNC(=N)N)NC(=O)[C@@H]1CCCN1C(=O)[C@H](CCC(=O)O)NC(=O)CNC(=O)CNC(=O)CNC(=O)CNC(=O)CNC(=O)[C@H](CCC(N)=O)NC(=O)[C@@H]1CCCN1C(=O)[C@@H]1CCCN1C(=O)[C@H](CCCNC(=N)N)NC(=O)[C@H](CCCNC(=N)N)NC(=O)[C@H](CCCNC(=N)N)NC(=O)[C@H](CCC(N)=O)NC(=O)[C@H](CCCNC(=N)N)NC(=O)[C@H](CCCNC(=N)N)NC(=O)[C@H](CCCCN)NC(=O)[C@H](CCCCN)NC(=O)[C@H](CCCNC(=N)N)NC(=O)CNC(C)=O)[C@@H](C)O)C(C)C)C(C)C)C(C)C)C(=O)N[C@H](C(=O)N[C@@H](CCCCN)C(=O)NCC(=O)N[C@@H](CCC(N)=O)C(=O)N1CCC[C@H]1C(=O)N[C@@H](Cc1ccccc1)C(=O)N[C@@H](CC(=O)O)C(=O)N[C@@H](C(=O)O)C(C)C)C(C)C [RB5] | selective activation | did not influence | enhanced | promotes | not activated | – | – |
| GRKKRRQRRRPPQGGGGGEPRRTEGVGPGVPGEVEMVKGQPFDV (listed as Homo sapiens) [CPP-RB5] | significantly increased | – | significantly enhanced | massive intra-nuclear MAPKs substrate activation | no effect | at a lesser extent reduced | comparable between the two treatments |
